Molecular target: T1, WT-CFTR channels (Homo sapiens, UniProt P13569)
T1 construct: expressed in transfected cells
Assay: IonWorks Quattro CFTR inhibitor assay (whole-cell planar patch clamp)
Format: cell-based
Conditions: inward current (−100 mV); CHO cells stably expressing WT-CFTR; CFTR activated by 10 μM forskolin; 10 min compound incubation
Method: This assay directly measures the currents associated with chloride flow through CFTR channels whilst either maintaining or adjusting the transmembrane voltage.
Chinese hamster ovary (CHO) cells stably expressing WT-CFTR channels were used for the IonWorks Quattro experiments. Cells were maintained at 37° C. in 5% v/v CO2 at 100% humidity in MEM alpha medium supplemented with 10% (v/v) FCS, 100 U/mL Penicillin/Streptomycin, and 100 μg/L methotrexate. For experiments, cells were grown in 225 cm^2 tissue culture flasks until almost confluent. Cells were removed from the flask using trypsin-EDTA and resuspended in extracellular recording solution for immediate experimentation.
Cells, at a density of 1.5-2 million per mL, were placed on the Quattro system, added to the planar patch plate and seals allowed to establish for 5-10 mins. […] CFTR was activated by the addition of 10 μM forskolin to each of the 384 wells of the patch plate. […] Test compounds, diluted from 10 mM stocks in DMSO in extracellular solution were then added to the patch plate and were incubated for a further 10 min. […] This was determined at both −100 mV and +100 mV which represents the inward and outward current respectively.

T1 sequence (P13569 whole entry): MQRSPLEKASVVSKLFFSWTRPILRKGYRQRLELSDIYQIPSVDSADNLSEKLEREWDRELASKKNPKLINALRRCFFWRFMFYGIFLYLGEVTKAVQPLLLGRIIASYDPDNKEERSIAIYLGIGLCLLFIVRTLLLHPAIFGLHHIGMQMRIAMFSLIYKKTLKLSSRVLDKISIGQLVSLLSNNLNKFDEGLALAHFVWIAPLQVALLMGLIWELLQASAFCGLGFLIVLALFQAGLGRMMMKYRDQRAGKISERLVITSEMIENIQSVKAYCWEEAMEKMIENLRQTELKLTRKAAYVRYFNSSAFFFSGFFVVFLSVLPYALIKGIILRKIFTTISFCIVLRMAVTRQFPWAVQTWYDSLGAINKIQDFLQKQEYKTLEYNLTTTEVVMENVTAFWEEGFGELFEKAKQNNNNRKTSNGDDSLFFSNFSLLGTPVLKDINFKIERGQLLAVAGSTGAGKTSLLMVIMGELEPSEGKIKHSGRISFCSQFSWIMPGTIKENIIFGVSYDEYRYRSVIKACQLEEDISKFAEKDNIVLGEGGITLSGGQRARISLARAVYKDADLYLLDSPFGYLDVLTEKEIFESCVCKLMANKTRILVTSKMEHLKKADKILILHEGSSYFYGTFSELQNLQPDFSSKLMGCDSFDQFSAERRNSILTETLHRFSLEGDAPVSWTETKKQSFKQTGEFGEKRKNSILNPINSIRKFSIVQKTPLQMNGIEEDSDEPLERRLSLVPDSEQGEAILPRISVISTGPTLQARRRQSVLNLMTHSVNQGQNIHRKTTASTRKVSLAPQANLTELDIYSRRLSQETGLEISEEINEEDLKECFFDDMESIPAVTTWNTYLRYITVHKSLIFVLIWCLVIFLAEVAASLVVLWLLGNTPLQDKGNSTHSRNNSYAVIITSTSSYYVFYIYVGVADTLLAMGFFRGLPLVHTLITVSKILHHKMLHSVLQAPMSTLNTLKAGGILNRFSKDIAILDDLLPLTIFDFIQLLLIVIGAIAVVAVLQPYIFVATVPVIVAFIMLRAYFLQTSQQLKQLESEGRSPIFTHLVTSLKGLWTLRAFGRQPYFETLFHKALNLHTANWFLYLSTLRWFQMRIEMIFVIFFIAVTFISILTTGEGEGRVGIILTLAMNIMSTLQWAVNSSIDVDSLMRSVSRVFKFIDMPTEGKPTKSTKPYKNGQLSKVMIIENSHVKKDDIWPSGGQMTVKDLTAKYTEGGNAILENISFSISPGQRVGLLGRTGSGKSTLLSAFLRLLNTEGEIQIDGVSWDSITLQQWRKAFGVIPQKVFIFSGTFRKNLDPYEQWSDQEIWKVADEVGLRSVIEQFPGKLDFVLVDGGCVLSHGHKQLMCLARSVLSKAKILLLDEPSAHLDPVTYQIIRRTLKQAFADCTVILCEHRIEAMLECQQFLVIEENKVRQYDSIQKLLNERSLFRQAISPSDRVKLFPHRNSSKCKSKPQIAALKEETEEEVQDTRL

Cc1csc(-c2c3c(=O)n(C)c(=O)n(C)c3c3n2CCC[C@H]3c2nc(Cl)cs2)n1 (single isomer, unassigned) [Example 13.2a, 10-(4-chlorothiazol-2-yl)-1,3-dimethyl-5-(4-methylthiazol-2-yl)-7,8,9,10-tetrahydropyrimido[4,5-a]indolizine-2,4(1H,3H)-dione]
IC50: 0.05 µM

— patent US9359381B2, “Tricyclic compounds for inhibiting the CFTR channel” (Novartis AG, priority 2012, dated 2016)
